Data: US10294202B2, “Pyrrolidinones as herbicides” (FMC Corporation, priority 2013, dated 2019)

Key:
blackgrass = assay: Test A postemergence herbicide test; assay type: in vivo, Alopecurus myosuroides; conditions: for Plant response rating, Blackgrass: 125 g ai/ha, 0 to 100 scale, 0 is no effect, 100 is complete control; for Blackgrass plant response rating (0 to 100 scale, 0 is no effect, 100 is complete control): 500 g ai/ha
Summary of the method: (§1)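 Potted in loam soil/sand blend; postemergence application at 1–2 leaf stage (2–10 cm). Greenhouse ~10 d. Visual injury vs untreated, 0–100 scale; 100 = complete control.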

sedge, umbrella = assay: Test B flooded paddy test; assay type: in vivo, Cyperus difformis; conditions: 500 g ai/ha, Flood; scale of 0 to 100 where 0 is no effect and 100 is complete control
Summary of the method: (§2)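 Treatment was made at the 2-leaf stage by dosing the standing floodwater, kept 3 cm above soil level for the whole test. Greenhouse exposure lasted 13 to 15 days. Response is a visual percent rating relative to controls, where a dash indicates no test result.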

rice = assay: Test B flooded paddy test; assay type: in vivo, Oryza sativa; conditions: 500 g ai/ha, Flood; scale of 0 to 100 where 0 is no effect and 100 is complete control
Summary of the method: as §2

corn = assay: Test A pre-/postemergence herbicide test; assay type: in vivo, Zea mays; conditions: Postemergence; for Plant response rating, Corn: 125 g ai/ha, 0 to 100 scale, 0 is no effect, 100 is complete control; for Corn plant response rating (0 to 100 scale, 0 is no effect, 100 is complete control): 500 g ai/ha
Summary of the method: (§3)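 Seeds sown in loam soil/sand blend received a preemergence directed soil spray of test chemical in non-phytotoxic solvent with surfactant; postemergence plants (2–10 cm, one- to two-leaf stage) were sprayed with the same formulation. After about 10 days in greenhouse, injury was rated visually versus untreated controls, 0 (no effect) to 100 (complete control).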

galium = assay: Test A postemergence herbicide test; assay type: in vivo, Galium aparine; conditions: for Plant response rating, Galium: 125 g ai/ha, 0 to 100 scale, 0 is no effect, 100 is complete control; for Galium plant response rating (0 to 100 scale, 0 is no effect, 100 is complete control): 500 g ai/ha
Summary of the method: as §1

ducksalad = assay: Test B flooded paddy test; assay type: in vivo, Heteranthera limosa; conditions: 500 g ai/ha, Flood; scale of 0 to 100 where 0 is no effect and 100 is complete control
Summary of the method: as §2

wheat = assay: Test A pre-/postemergence herbicide test; assay type: in vivo, Triticum aestivum; conditions: Postemergence; for Plant response rating, Wheat: 125 g ai/ha, 0 to 100 scale, 0 is no effect, 100 is complete control; for Wheat plant response rating (0 to 100 scale, 0 is no effect, 100 is complete control): 500 g ai/ha
Summary of the method: as §3

kochia = assay: Test A pre-/postemergence herbicide test; assay type: in vivo, Kochia scoparia; conditions: for Plant response rating, Kochia: 0 to 100 scale
Summary of the method: as §3

barnyardgrass [1] = assay: Test A pre-/postemergence herbicide test; assay type: in vivo, Echinochloa crus-galli
Summary of the method: as §3

ryegrass, Italian = assay: Test A pre-/postemergence herbicide test; assay type: in vivo, Lolium multiflorum; conditions: for Plant response rating, Ryegrass, Italian: 0 to 100 scale
Summary of the method: as §3

barnyardgrass [2] = assay: Test B flooded paddy test; assay type: in vivo, Echinochloa crus-galli; conditions: 500 g ai/ha, Flood; scale of 0 to 100 where 0 is no effect and 100 is complete control
Summary of the method: as §2

pigweed = assay: Test A pre-/postemergence herbicide test; assay type: in vivo, Amaranthus retroflexus; conditions: for Plant response rating, Pigweed: 0 to 100 scale
Summary of the method: as §3

ragweed = assay: Test A pre-/postemergence herbicide test; assay type: in vivo, Ambrosia elatior; conditions: for Plant response rating, Ragweed: 0 to 100 scale
Summary of the method: as §3

giant foxtail = assay: Test A pre-/postemergence herbicide test; assay type: in vivo, Setaria faberii; conditions: for Plant response rating, Foxtail, Giant: 0 to 100 scale
Summary of the method: as §3

[3] = 125 g ai/ha, visual rating, 0 no effect, 100 complete control, approximately 10 days, preemergence
[4] = Postemergence, 125 g ai/ha, 0 is no effect, 100 is complete control
[5] = preemergence, 500 g ai/ha, 0 is no effect and 100 is complete control
[6] = 125 g ai/ha, visual rating, 0 to 100 scale, 0 no effect, 100 complete control, approximately 10 days, preemergence
[7] = Postemergence, 125 g ai/ha, 0 to 100 scale, 0 is no effect, 100 is complete control
[8] = preemergence, 500 g ai/ha, 0 to 100 scale (0 no effect, 100 complete control)

Compound: CS(=O)(=O)c1ccccc1NC(=O)C1C(=O)NCC1c1cccc(C(F)(F)F)c1 (racemic) [Compound 160]
- Plant response rating, Blackgrass (blackgrass): 60
- Blackgrass plant response rating (0 to 100 scale, 0 is no effect, 100 is complete control) (blackgrass): 70
- Plant response rating, Sedge, Umbrella (sedge, umbrella): 0
- Plant response rating, Rice (rice): 10
- Plant response rating, Corn (corn): 40
- Corn plant response rating (0 to 100 scale, 0 is no effect, 100 is complete control) (corn): 70
- Plant response rating, Galium (galium): 60
- Galium plant response rating (0 to 100 scale, 0 is no effect, 100 is complete control) (galium): 70
- Plant response rating, Ducksalad (ducksalad): 100
- Plant response rating, Wheat (wheat): 0
- Wheat plant response rating (0 to 100 scale, 0 is no effect, 100 is complete control) (wheat): 50
- Plant response rating, Kochia (kochia; [3]): 80
- Plant response rating, Kochia (kochia; [4]): 70
- Kochia plant response rating (0 to 100 scale, 0 is no effect, 100 is complete control) (kochia; Postemergence, 500 g ai/ha): 80
- Plant response rating, Kochia (kochia; [5]): 90
- Plant response rating, Barnyardgrass (barnyardgrass [1]; [6]): 80
- Plant response rating, Barnyardgrass (barnyardgrass [1]; [7]): 70
- Barnyardgrass plant response rating (0 to 100 scale, 0 is no effect, 100 is complete control) (barnyardgrass [1]; Postemergence, 500 g ai/ha): 80
- Plant response rating, Barnyardgrass (barnyardgrass [1]; [8]): 90
- Plant response rating, Ryegrass, Italian (ryegrass, Italian; [3]): 60
- Plant response rating, Ryegrass, Italian (ryegrass, Italian; [4]): 0
- Ryegrass, Italian plant response rating (0 to 100 scale, 0 is no effect, 100 is complete control) (ryegrass, Italian; Postemergence, 500 g ai/ha): 10
- Plant response rating, Ryegrass, Italian (ryegrass, Italian; [5]): 70
- Plant response rating, Barnyardgrass (barnyardgrass [2]): 60
- Plant response rating, Pigweed (pigweed; [3]): 70
- Plant response rating, Pigweed (pigweed; [4]): 60
- Pigweed plant response rating (0 to 100 scale, 0 is no effect, 100 is complete control) (pigweed; Postemergence, 500 g ai/ha): 80
- Plant response rating, Pigweed (pigweed; [5]): 90
- Plant response rating, Ragweed (ragweed; [3]): 70
- Plant response rating, Ragweed (ragweed; [4]): 50
- Ragweed plant response rating (0 to 100 scale, 0 is no effect, 100 is complete control) (ragweed; Postemergence, 500 g ai/ha): 60
- Plant response rating, Ragweed (ragweed; [5]): 80
- Plant response rating, Foxtail, Giant (giant foxtail; [3]): 80
- Plant response rating, Foxtail, Giant (giant foxtail; [4]): 80
- Foxtail, Giant plant response rating (0 to 100 scale, 0 is no effect, 100 is complete control) (giant foxtail; Postemergence, 500 g ai/ha): 90
- Plant response rating, Foxtail, Giant (giant foxtail; preemergence, 500 g ai/ha): 90

Compound: O=C1NCC(c2ccc3c(c2)OC(F)(F)O3)C1C(=O)Nc1ccc(F)c(F)c1F (racemic) [Compound 162]
- Plant response rating, Blackgrass (blackgrass): 50
- Blackgrass plant response rating (0 to 100 scale, 0 is no effect, 100 is complete control) (blackgrass): 50
- Plant response rating, Sedge, Umbrella (sedge, umbrella): 0
- Plant response rating, Rice (rice): 0
- Plant response rating, Corn (corn): 30
- Corn plant response rating (0 to 100 scale, 0 is no effect, 100 is complete control) (corn): 60
- Plant response rating, Galium (galium): 30
- Galium plant response rating (0 to 100 scale, 0 is no effect, 100 is complete control) (galium): 70
- Plant response rating, Ducksalad (ducksalad): 100
- Plant response rating, Wheat (wheat): 0
- Wheat plant response rating (0 to 100 scale, 0 is no effect, 100 is complete control) (wheat): 50
- Plant response rating, Kochia (kochia; [3]): 50
- Plant response rating, Kochia (kochia; [4]): 40
- Kochia plant response rating (0 to 100 scale, 0 is no effect, 100 is complete control) (kochia; Postemergence, 500 g ai/ha): 70
- Plant response rating, Kochia (kochia; [5]): 60
- Plant response rating, Barnyardgrass (barnyardgrass [1]; [6]): 90
- Plant response rating, Barnyardgrass (barnyardgrass [1]; [7]): 70
- Barnyardgrass plant response rating (0 to 100 scale, 0 is no effect, 100 is complete control) (barnyardgrass [1]; Postemergence, 500 g ai/ha): 90
- Plant response rating, Barnyardgrass (barnyardgrass [1]; [8]): 90
- Plant response rating, Ryegrass, Italian (ryegrass, Italian; [3]): 0
- Plant response rating, Ryegrass, Italian (ryegrass, Italian; [4]): 0
- Ryegrass, Italian plant response rating (0 to 100 scale, 0 is no effect, 100 is complete control) (ryegrass, Italian; Postemergence, 500 g ai/ha): 50
- Plant response rating, Ryegrass, Italian (ryegrass, Italian; [5]): 50
- Plant response rating, Barnyardgrass (barnyardgrass [2]): 75
- Plant response rating, Pigweed (pigweed; [3]): 60
- Plant response rating, Pigweed (pigweed; [4]): 20
- Pigweed plant response rating (0 to 100 scale, 0 is no effect, 100 is complete control) (pigweed; Postemergence, 500 g ai/ha): 70
- Plant response rating, Pigweed (pigweed; [5]): 80
- Plant response rating, Ragweed (ragweed; [3]): 0
- Plant response rating, Ragweed (ragweed; [4]): 0
- Ragweed plant response rating (0 to 100 scale, 0 is no effect, 100 is complete control) (ragweed; Postemergence, 500 g ai/ha): 40
- Plant response rating, Ragweed (ragweed; [5]): 60
- Plant response rating, Foxtail, Giant (giant foxtail; [3]): 80
- Plant response rating, Foxtail, Giant (giant foxtail; [4]): 90
- Foxtail, Giant plant response rating (0 to 100 scale, 0 is no effect, 100 is complete control) (giant foxtail; Postemergence, 500 g ai/ha): 90
- Plant response rating, Foxtail, Giant (giant foxtail; preemergence, 500 g ai/ha): 90

Compound: O=C1NCC(c2cccc(C(F)F)c2)C1C(=O)Nc1ccccc1F (racemic) [Compound 163]
- Plant response rating, Blackgrass (blackgrass): 50
- Blackgrass plant response rating (0 to 100 scale, 0 is no effect, 100 is complete control) (blackgrass): 60
- Plant response rating, Sedge, Umbrella (sedge, umbrella): 0
- Plant response rating, Rice (rice): 15
- Plant response rating, Corn (corn): 10
- Corn plant response rating (0 to 100 scale, 0 is no effect, 100 is complete control) (corn): 40
- Plant response rating, Galium (galium): 20
- Galium plant response rating (0 to 100 scale, 0 is no effect, 100 is complete control) (galium): 60
- Plant response rating, Ducksalad (ducksalad): 100
- Plant response rating, Wheat (wheat): 20
- Wheat plant response rating (0 to 100 scale, 0 is no effect, 100 is complete control) (wheat): 60
- Plant response rating, Kochia (kochia; [3]): 0
- Plant response rating, Kochia (kochia; [4]): 0
- Kochia plant response rating (0 to 100 scale, 0 is no effect, 100 is complete control) (kochia; Postemergence, 500 g ai/ha): 0
- Plant response rating, Kochia (kochia; [5]): 50
- Plant response rating, Barnyardgrass (barnyardgrass [1]; [6]): 80
- Plant response rating, Barnyardgrass (barnyardgrass [1]; [7]): 90
- Barnyardgrass plant response rating (0 to 100 scale, 0 is no effect, 100 is complete control) (barnyardgrass [1]; Postemergence, 500 g ai/ha): 90
- Plant response rating, Barnyardgrass (barnyardgrass [1]; [8]): 90
- Plant response rating, Ryegrass, Italian (ryegrass, Italian; [3]): 0
- Plant response rating, Ryegrass, Italian (ryegrass, Italian; [4]): 0
- Ryegrass, Italian plant response rating (0 to 100 scale, 0 is no effect, 100 is complete control) (ryegrass, Italian; Postemergence, 500 g ai/ha): 30
- Plant response rating, Ryegrass, Italian (ryegrass, Italian; [5]): 0
- Plant response rating, Barnyardgrass (barnyardgrass [2]): 90
- Plant response rating, Pigweed (pigweed; [3]): 40
- Plant response rating, Pigweed (pigweed; [4]): 0
- Pigweed plant response rating (0 to 100 scale, 0 is no effect, 100 is complete control) (pigweed; Postemergence, 500 g ai/ha): 20
- Plant response rating, Pigweed (pigweed; [5]): 40
- Plant response rating, Ragweed (ragweed; [3]): 0
- Plant response rating, Ragweed (ragweed; [4]): 0
- Ragweed plant response rating (0 to 100 scale, 0 is no effect, 100 is complete control) (ragweed; Postemergence, 500 g ai/ha): 20
- Plant response rating, Ragweed (ragweed; [5]): 40
- Plant response rating, Foxtail, Giant (giant foxtail; [3]): 90
- Plant response rating, Foxtail, Giant (giant foxtail; [4]): 70
- Foxtail, Giant plant response rating (0 to 100 scale, 0 is no effect, 100 is complete control) (giant foxtail; Postemergence, 500 g ai/ha): 80
- Plant response rating, Foxtail, Giant (giant foxtail; preemergence, 500 g ai/ha): 90
